Broadly, the viability, T/C is the result in the treated group divided by that in the control group, in per cent. As usually defined, the IC50 is the concentration that inhibits the measured activity by half.

“And” between values parts separate entries of the source, which are not always exact repeats. Equal entries are not always repeated. A value given as a limit tells only on which side of the number the result lay.

The subject of this assay is 519858-162-T-J1-PDC complex spheroid viability. The experiment in a line: Anticancer human tumor 519858-162-T-J1-PDC patient-derived colon adenocarcinoma cell line growth inhibition [GQUAD]. Conditions: for viability, T/C: stronger effect = lower value. The source says:
DNA G-quadruplex Stabilizer Agents in Combinations in Complex Spheroids
A high-throughput screen of multi-cell type tumor spheroids was designed to identify active combinations of DNA G-quadruplex stabilizer agents and targeted small molecules. Complex spheroids include a stromal component modeled by human endothelial cells (HUVEC) and fibroblasts modeled by human mesenchymal stem cells (MSCs). The concentration ranges selected for each drug and investigational agent were based upon clinically achievable concentrations if the clinical Cmax of the agent was known.
Compounds. The drugs and investigational agents: pidnarulex (CX-5461; NSC782164), APTO-253 (NSC789042), BRACO-19 (NSC847499), peposertib (NSC802822), ceralasertib (NSC780249), elimusertib (NSC800525), camonsertib (NSC841442), AZD-1390 (NSC803789), olaparib (NSC753686), talazoparib (NSC767125), ART-558 (NSC835418), sotorasib (NSC818433), MRTX-1133 (NSC836407), SN-38 (NSC673596), topotecan (NSC609699), etoposide (NSC141540), doxorubicin (NSC123127), gemcitabine (NSC613327), 5-fluorouracil (NSC19893), paclitaxel (NSC125973), vemurafenib (NSC761431), panobinostat (NSC761190), R-306465 (JNJ-16241199; NSC773264), adavosertib (NSC754352), TP-3654 (NSC805149), carboplatin (NSC241240), KSQ-4279 (NSC840948), and staurosporine (NSC755774) were obtained from the National Cancer Institute (NCI) Developmental Therapeutics Program Chemical Repository (34). The FDA-approved anticancer drug set is available from the NCI Developmental Therapeutics Program. […] The stock solutions were prepared in dimethyl sulfoxide (DMSO, Sigma-Aldrich, St. Louis, MO, cat. D2650) at 800-fold the tested concentration and stored at -70 degrees C prior to their use. All drugs and investigational agents were tested over a range starting from a high concentration at or near the clinical Cmax and decreasing in half-log increments. If the clinical Cmax for an agent had not been determined, the highest concentration tested was 10 microM.
2.3 Cell Culture. All cells were maintained in an incubator at 37 degrees C and 5% CO2 with 95% humidity. The PDC lines were cultured according to standard operating procedures established by the NCI PDMR. All PDCs were thawed and cultured in Matrigel-coated flasks prepared with a working solution of 1X Ham's F-12 nutrient mix, without supplementation (Invitrogen, cat. 11765054), 100 U/mL penicillin-streptomycin (Invitrogen, cat. 15140122), and 2.5% Matrigel (Corning Inc., cat. 354248) for the first three passages. The 857933-349-R-J2-PDC line was cultured in 6C/Colon 1B media, which includes advanced DMEM/F-12 (Thermo Fisher Scientific, cat. 12634028), 10 mM HEPES (Thermo Fisher Scientific, cat. 15630080), 1X GlutaMAX supplement (Thermo Fisher Scientific, cat. 35050061), 0.1 mg/mL primocin (InvivoGen, cat. ant-pm-2), 10% defined fetal bovine serum, heat inactivated (HyClone Laboratories Inc., cat. SH30070.03HI), 50% L-WRN conditioned media (ATCC, cat. CRL-3276), 1.25 mM N-Acetyl-L-cysteine (Sigma-Aldrich, cat. A9165), 10 mM nicotinamide (Sigma-Aldrich, cat. N0636), 1X B-27 supplement (Thermo Fisher Scientific, cat. 17504044), 1X N-2 supplement (Thermo Fisher Scientific, cat. 17502048), 10 microM Y-27632 dihydrochloride (Tocris Bioscience, cat. 1254), and 50 ng/mL human EGF recombinant protein (Thermo Fisher Scientific, cat. PHG0311). The 485176-168-R4-J1-PDC line was cultured in Panc media, which includes all 6C/Colon 1B media components plus 100 ng/mL human FGF-10 (Thermo Fisher Scientific, cat. 100-26), 500 nM SB-431542 (Selleckchem, cat. S1067), and gastrin (Tocris, cat. 3006).
[…]

The mark [1] stands for this setting: curve of first compound, second compound 0.0316 µM.
The mark [2] stands for this setting: curve of first compound, second compound 0.1 µM.
Setting [3] is: curve of first compound, second compound 0.316 µM.
Setting [4] is: curve of first compound, second compound 1 µM.
Setting [5] is: curve of first compound, second compound 3.16 µM.
Where [6] appears, read: curve of first compound, second compound 10 µM.
[7] abbreviates: second compound 0.0316 µM, first compound 0.0316 µM.
Where [8] appears, read: second compound 0.0316 µM, first compound 0.1 µM.
The mark [9] stands for this setting: second compound 0.0316 µM, first compound 0.316 µM.
Where [10] appears, read: second compound 0.0316 µM, first compound 1 µM.
Setting [11] is: second compound 0.0316 µM, first compound 3.16 µM.
Setting [12] is: second compound 0.0316 µM, first compound 10 µM.
Setting [13] is: second compound 0.1 µM, first compound 0.0316 µM.
[14] abbreviates: second compound 0.1 µM, first compound 0.1 µM.
Where [15] appears, read: second compound 0.1 µM, first compound 0.316 µM.
[16] abbreviates: second compound 0.1 µM, first compound 1 µM.
[17] abbreviates: second compound 0.1 µM, first compound 3.16 µM.
Setting [18] is: second compound 0.1 µM, first compound 10 µM.
Where [19] appears, read: second compound 0.316 µM, first compound 0.0316 µM.
Setting [20] is: second compound 0.316 µM, first compound 0.1 µM.
Where [21] appears, read: second compound 0.316 µM, first compound 0.316 µM.
[22] abbreviates: second compound 0.316 µM, first compound 1 µM.
Setting [23] is: second compound 0.316 µM, first compound 3.16 µM.
Setting [24] is: second compound 0.316 µM, first compound 10 µM.
Where [25] appears, read: second compound 1 µM, first compound 0.0316 µM.
Where [26] appears, read: second compound 1 µM, first compound 0.1 µM.
Setting [27] is: second compound 1 µM, first compound 0.316 µM.
Setting [28] is: second compound 1 µM, first compound 1 µM.
Where [29] appears, read: second compound 1 µM, first compound 3.16 µM.
[30] abbreviates: second compound 1 µM, first compound 10 µM.
Setting [31] is: second compound 3.16 µM, first compound 0.0316 µM.
[32] abbreviates: second compound 3.16 µM, first compound 0.1 µM.
The mark [33] stands for this setting: second compound 3.16 µM, first compound 0.316 µM.
[34] abbreviates: second compound 3.16 µM, first compound 1 µM.
Where [35] appears, read: second compound 3.16 µM, first compound 3.16 µM.
The mark [36] stands for this setting: second compound 3.16 µM, first compound 10 µM.
Where [37] appears, read: second compound 10 µM, first compound 0.0316 µM.
Setting [38] is: second compound 10 µM, first compound 0.1 µM.
Setting [39] is: second compound 10 µM, first compound 0.316 µM.
Setting [40] is: second compound 10 µM, first compound 1 µM.
The mark [41] stands for this setting: second compound 10 µM, first compound 3.16 µM.
Setting [42] is: second compound 10 µM, first compound 10 µM.
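Also: spheroids exposed to compounds for 7 days.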

Regarding `C=CCn1c(=O)c2cnc(Nc3ccc(N4CCN(C)CC4)cc3)nc2n1-c1cccc(C(C)(C)O)n1`, the viability, T/C was 83% and 81.4% (compound 0.0316 µM); 107% and 106% (compound 0.1 µM); 126% and 105% (compound 0.316 µM); 104% and 95.3% (compound 1 µM); 83.3% and 94.8% (compound 3.16 µM); 92.4% and 92.1% (compound 10 µM). Moreover, the IC50 (curve of compound) is over 10 µM.

`COc1ncnc(C2CC2)c1-c1ncc2cnn(Cc3ccc(-c4nc(C(F)(F)F)cn4C(C)C)cc3)c2n1`: the viability, T/C by setting is: (compound 0.0316 µM) 104% and 85.1%; (compound 0.1 µM) 111% and 83.2%; (compound 0.316 µM) 101% and 92.7%; (compound 1 µM) 119% and 75.2%; (compound 3.16 µM) 95.7% and 89.8%; (compound 10 µM) 83.2% and 81.7%. Besides, the IC50 (curve of compound) was over 10 µM.

On to `Cc1[nH]c2ccc(F)cc2c1-c1nc2c3cccnc3c3ncccc3c2[nH]1`, for which the viability, T/C by setting is: (compound 0.1 µM) 87.9% [middle of 9 runs]; (compound 0.316 µM) 92.2% [middle of 9 runs]. Also, the IC50 was 8.82 µM and > 10 µM and 9.27 µM (compound alone, run of 02/20/2024); over 10 µM (compound alone, run of 02/26/2024).

As to `Cc1cnc(CNC(=O)c2c(=O)c3ccc(N4CCCN(C)CC4)nc3n3c2sc2ccccc23)cn1`, the viability, T/C by setting is: (compound 1 µM) 69.1% [middle of 10 runs]; (compound 10 µM) 52.6% [middle of 10 runs].

Turning to `CC1COCCN1c1cc(C2(O)CC3CCC(C2)O3)c2cnn(-c3ccn[nH]3)c2n1` (centres undefined) + CN(C)c1ccc(Nc2c3ccc(NC(=O)CCN4CCCC4)cc3nc3cc(NC(=O)CCN4CCCC4)ccc23)cc1, the IC50 is 8.37 µM under setting [1]; over 10 µM under setting [2]; over 10 µM under setting [3]; 9.4 µM under setting [4]; over 10 µM under setting [5]; over 10 µM under setting [6]. Further, the viability, T/C is 84.3% under setting [7]; 89% under setting [8]; 87.3% under setting [9]; 90.2% under setting [10]; 114% under setting [11]; 42% under setting [12]. Besides, the viability, T/C runs as follows: under setting [13], 77.5%; under setting [14], 76.9%; under setting [15], 76.5%; under setting [16], 73.5%; under setting [17], 75.2%; under setting [18], 71.6%. The viability, T/C reads like this: under setting [19], 106%; under setting [20], 65.5%; under setting [21], 98.2%; under setting [22], 105%; under setting [23], 113%; under setting [24], 57%. Also, the viability, T/C was 104% under setting [25]; 75.6% under setting [26]; 99.8% under setting [27]; 79.2% under setting [28]; 88.4% under setting [29]; 47.8% under setting [30]. The viability, T/C was 71.1% under setting [31]; 66.8% under setting [32]; 98.3% under setting [33]; 73.2% under setting [34]; 74.3% under setting [35]; 65.3% under setting [36]. Besides, the viability, T/C runs as follows: under setting [37], 85%; under setting [38], 81%; under setting [39], 59.9%; under setting [40], 60.7%; under setting [41], 76.5%; under setting [42], 43.1%.

In the case of `Cc1cccc(N(C)C(=O)C2C(O)CCN2c2nc(C)cc(C(F)(F)F)c2C#N)c1` (centres undefined) + CN(C)c1ccc(Nc2c3ccc(NC(=O)CCN4CCCC4)cc3nc3cc(NC(=O)CCN4CCCC4)ccc23)cc1, the IC50 under setting [1] is over 10 µM; the IC50 under setting [2] is over 10 µM; the IC50 under setting [3] is over 10 µM; the IC50 under setting [4] was over 10 µM; the IC50 under setting [5] was over 10 µM; the IC50 under setting [6] was over 10 µM. In addition, the viability, T/C by setting is: under setting [7], 86.1%; under setting [8], 126%; under setting [9], 96.4%; under setting [10], 95.2%; under setting [11], 91.1%; under setting [12], 92.9%. Also, the viability, T/C is 105% under setting [13]; 78.6% under setting [14]; 109% under setting [15]; 77.2% under setting [16]; 68.1% under setting [17]; 83.8% under setting [18]. The viability, T/C under setting [19] is 111%; the viability, T/C under setting [20] is 87.7%; the viability, T/C under setting [21] was 120%; the viability, T/C under setting [22] is 61.4%; the viability, T/C under setting [23] is 75%; the viability, T/C under setting [24] is 85.5%. The viability, T/C under setting [25] was 102%; the viability, T/C under setting [26] is 84.6%; the viability, T/C under setting [27] is 109%; the viability, T/C under setting [28] is 73.1%; the viability, T/C under setting [29] was 88.8%; the viability, T/C under setting [30] was 73.3%. Further, the viability, T/C reads like this: under setting [31], 63.9%; under setting [32], 76.2%; under setting [33], 103%; under setting [34], 91.8%; under setting [35], 78.5%; under setting [36], 62.3%. The viability, T/C is 71.2% under setting [37]; 78.8% under setting [38]; 57.9% under setting [39]; 90.7% under setting [40]; 65.2% under setting [41]; 88.3% under setting [42].

(Values after PubChem BioAssay AID2060507 (Molecular Pharmacology Branch, DTP, NCI, 2025).)
